Source: the supplement of paper PMC10307832

Columns and labels:
Assay in all cases: relative viability (nuclei count vs DMSO), 5 days (fraction); higher = more cells survive
[1] = compound: CCC1=CN=CN=C1N2CCN(CC2)CC3=NC4=C(N3)C=C(C=C4)C(F)(F)F + CC(=O)Nc1cccc(-n2c(=O)n(C3CC3)c(=O)c3c(Nc4ccc(I)cc4F)n(C)c(=O)c(C)c32)c1 [Trametinib] (partner 0.02 µM)
Procedure, shortened: (§1)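 Each reported value is a median over duplicate plates. It expresses relative viability: treated-well nuclei count divided by vehicle-well nuclei count. Lung cancer cell lines in 1536-well plates were dosed by pin tool a day after seeding, alone with one drug or with a fixed anchor-drug dose plus five library-drug doses (not always all listed) in √10 steps, and nuclei were counted after 5 days.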

[2] = compound: CCC1=CN=CN=C1N2CCN(CC2)CC3=NC4=C(N3)C=C(C=C4)C(F)(F)F + COc1cccc2cc(-c3nc([C@H]4CC[C@H](C(=O)O)CC4)n4ncnc(N)c34)[nH]c12 [OSI-027] (partner 0.5 µM)
Procedure, shortened: as §1

Mirin + Tozasertib = compound: N=C1NC(=O)/C(=C/c2ccc(O)cc2)S1 [Mirin] + Cc1cc(Nc2cc(N3CCN(C)CC3)nc(Sc3ccc(NC(=O)C4CC4)cc3)n2)n[nH]1 [Tozasertib] (partner 0.1 µM)
Procedure, shortened: as §1

Mirin + Linsitinib = compound: N=C1NC(=O)/C(=C/c2ccc(O)cc2)S1 [Mirin] + C[C@]1(O)C[C@@H](c2nc(-c3ccc4ccc(-c5ccccc5)nc4c3)c3c(N)nccn32)C1 [Linsitinib] (partner 1 µM)
Procedure, shortened: as §1

| Cell Line | relative viability ([1]; first compound 0.04 µM) | relative viability ([1]; first compound 0.1265 µM) | relative viability ([1]; first compound 0.4 µM) | relative viability ([1]; first compound 1.265 µM) | relative viability ([1]; first compound 4 µM) | relative viability ([2]; first compound 0.04 µM) | relative viability ([2]; first compound 0.1265 µM) | relative viability ([2]; first compound 0.4 µM) | relative viability ([2]; first compound 1.265 µM) | relative viability ([2]; first compound 4 µM) | relative viability (Mirin + Tozasertib; first compound 0.25 µM) | relative viability (Mirin + Tozasertib; first compound 0.7906 µM) | relative viability (Mirin + Tozasertib; first compound 2.5 µM) | relative viability (Mirin + Tozasertib; first compound 7.906 µM) | relative viability (Mirin + Tozasertib; first compound 25 µM) | relative viability (Mirin + Linsitinib; first compound 0.25 µM) | relative viability (Mirin + Linsitinib; first compound 0.7906 µM) | relative viability (Mirin + Linsitinib; first compound 2.5 µM) | relative viability (Mirin + Linsitinib; first compound 7.906 µM) | relative viability (Mirin + Linsitinib; first compound 25 µM) |
| --- | --- | --- | --- | --- | --- | --- | --- | --- | --- | --- | --- | --- | --- | --- | --- | --- | --- | --- | --- | --- |
| NCI-H522 | 0.797 | 0.848 | 0.761 | 0.692 | 0.795 | 0.656 | 0.771 | 0.575 | 0.627 | 0.675 | 0.491 | 0.538 | 0.582 | 0.517 | 0.472 | – | – | – | – | – |
| NCI-H1299 | – | – | – | – | – | – | – | – | – | – | – | – | – | – | – | 0.984 | 0.966 | 0.978 | 0.879 | 1.2 |
| NCI-H1563 | – | – | – | – | – | 0.813 | 0.788 | 0.733 | 0.685 | 0.821 | – | – | – | – | – | 1.16 | 1.32 | 1.19 | 1.18 | 1.19 |
| NCI-H1623 | – | – | – | – | – | 0.399 | 0.39 | 0.431 | 0.437 | 0.432 | 0.448 | 0.429 | 0.423 | 0.436 | 0.377 | – | – | – | – | – |
| NCI-H1648 | 0.555 | – | – | 0.391 | 0.519 | 0.259 | 0.278 | – | 0.278 | 0.314 | 0.444 | 0.608 | 0.506 | 0.466 | 0.251 | – | – | – | – | – |
| NCI-H1650 | 0.499 | 0.707 | 0.573 | 0.499 | 0.672 | 0.635 | 0.621 | 0.565 | – | 0.752 | 0.379 | 0.483 | 0.421 | 0.325 | 0.277 | – | – | – | – | – |
| NCI-H1703 | – | – | – | – | – | – | – | – | – | – | – | – | – | – | – | 0.797 | 0.353 | 0.967 | – | 0.916 |
| NCI-H1792 | 0.585 | 0.389 | 0.403 | – | 0.522 | 0.89 | 0.684 | 0.698 | 0.668 | 0.547 | – | – | – | – | – | 0.597 | 0.592 | 0.617 | 0.505 | 0.589 |
| NCI-H2170 | 0.946 | 0.911 | 0.873 | 0.777 | 0.851 | 0.672 | 0.682 | 0.752 | 0.732 | 0.726 | 0.709 | 0.747 | 0.713 | 0.652 | 0.504 | – | – | – | – | – |
| NCI-H2342 | 0.748 | 0.906 | 0.826 | 0.503 | 0.511 | 0.607 | 0.577 | 0.574 | 0.479 | 0.586 | 0.474 | 0.636 | 0.625 | 0.49 | 0.459 | – | – | – | – | – |
| SW 900 | 0.545 | 0.679 | 0.857 | – | 0.7 | 0.529 | 0.543 | 0.539 | 0.421 | 0.476 | 0.652 | 0.698 | 0.571 | 0.689 | 0.473 | – | – | – | – | – |
